Laboratory results reported in publication PMC11311821, “Biochemical Characterisation of Sis: A Distinct Thermophilic PETase with Enhanced NanoPET Substrate Hydrolysis and Thermal Stability” (International Journal of Molecular Sciences, 2024).

Test system: Sis
Experiment: spectrophotometric p-nitrophenol release at […] nm
Assay type: biochemical, metagenome: geothermal site (36 °C, pH 9.8)
Settings: optimal conditions of pH and temperature (sodium-phosphate pH 7.0, 70 °C)

Km: 80 ± 10 µM
SMILES: CCCC(=O)Oc1ccc([N+](=O)[O-])cc1 [pNP-butyrate]
